Assay results reported in ChEMBL document CHEMBL5303304, “EUbOPEN Chemogenomics Library - IncuCyte” (2023).
“And” between values parts separate entries of the source, which are not always exact repeats. Equal values may be shown once.

Assays:
Type in all cases: toxicity, cell-based
HEK-293T = test: Incucyte cell viability with HEK293T; conditions: human, 10 µM, compound concentration 10 uM
Fibroblast = test: Incucyte cell viability with human fibroblast; conditions: 10 µM, compound concentration 10 uM
U2OS = test: Incucyte cell viability with U2OS; conditions: human, 10 µM, compound concentration 10 uM
Note: unitless GR value; below 1 slowed growth and below 0 cell loss.

Row | SMILES | Growth Rate (HEK-293T; 6 h, replicate number 2) | Growth Rate (HEK-293T; 12 h, replicate number 2) | Growth Rate (Fibroblast; 6 h, replicate number 1) | Growth Rate (Fibroblast; 6 h, replicate number 2) | Growth Rate (Fibroblast; 12 h, replicate number 2) | Growth Rate (Fibroblast; 18 h, replicate number 1) | Growth Rate (Fibroblast; 18 h, replicate number 2) | Growth Rate (Fibroblast; 24 h, replicate number 2) | Growth Rate (U2OS; 6 h, replicate number 1) | Growth Rate (U2OS; 6 h, replicate number 2) | Growth Rate (U2OS; 12 h, replicate number 1) | Growth Rate (U2OS; 12 h, replicate number 2) | Growth Rate (U2OS; 18 h, replicate number 1) | Growth Rate (U2OS; 18 h, replicate number 2) | Growth Rate (U2OS; 24 h, replicate number 1) | Growth Rate (HEK-293T; 24 h, replicate number 1) | Growth Rate (U2OS; 0 h, replicate number 1) | Growth Rate (Fibroblast; 0 h, replicate number 1) | Growth Rate (Fibroblast; 24 h, replicate number 1) | Growth Rate (Fibroblast; 12 h, replicate number 1) | further results
1 | COc1ccccc1C(=O)Nc1cccc(NC(=O)c2cccc(C)c2)c1 | 0.58 | 0.91 | 0.45 | -1 | 0.94 | 0.17 | 0.98 | 0.85 | 0.17 | 0.68 | 0.78 | 0.75 | 0.83 | 0.84 | 0.88 | – | – | – | – | – | –
2 | CCOC(=O)N1CCC(c2cc(O)n3nc(C)c(-c4ccc(F)cc4)c3n2)CC1 | 0.98 | – | – | -0.67 | 0.8 | 0.13 | 0.85 | 0.92 | 0.54 | 0.99 | 0.93 | – | 0.98 | – | – | 0.88 | 0.61 | – | – | – | Growth Rate (HEK-293T; 12 h, replicate number 1): 0.62; Growth Rate (HEK-293T; 18 h, replicate number 1): 0.78; Growth Rate (U2OS; 0 h, replicate number 2): 0.63
3 | Cc1ccc(CNc2ncnc3ccc(-c4ccc(CO)o4)cc23)o1 | 0.11 | 0.71 | -1 | – | – | – | – | – | – | – | – | – | – | 0.94 | – | – | -0.83 | – | – | – | Growth Rate (HEK-293T; 18 h, replicate number 2): 0.69; Growth Rate (HEK-293T; 24 h, replicate number 2): 0.79; Growth Rate (Fibroblast; 0 h, replicate number 2): 0.71; Growth Rate (U2OS; 24 h, replicate number 2): 0.86
4 | Cc1cc(C)c(NC(=O)C2CC3CCC2C3)c(C)c1 (stereo not given) | 0.65 | – | -0.94 | -0.52 | 0.78 | – | 0.75 | 0.97 | 0.68 | – | 0.47 | 0.78 | 0.75 | – | 0.83 | – | – | – | – | – | –
5 | CN(C)CCOc1ccc(/C(=C(/CCCO)c2ccccc2)c2ccc(O)cc2)cc1 | 0.71 | – | – | – | – | – | – | – | 0.76 | – | – | – | 1 | – | – | – | – | 0.55 | 0.02 | – | Growth Rate (Fibroblast; 0 h, replicate number 2): -0.4; Growth Rate (U2OS; 0 h, replicate number 2): -0.67
6 | COc1ccc(-c2csc(NC(=O)[C@H]3CCCCN3S(=O)(=O)c3ccc(C)cc3)n2)cc1 | 0.07 and 0.12 | 0.37 | 0.02 | – | – | – | 0.57 | 0.7 | 0.92 | 0.97 | 0.99 | – | – | – | 0.87 and 0.98 | 0.37 and 0.33 | 0.22 | -1 and -0.88 | 0.84 | 0.31 | Growth Rate (HEK-293T; 18 h, replicate number 1): 0.35 and 0.26; Growth Rate (HEK-293T; 18 h, replicate number 2): 0.3 and 0.38; Growth Rate (HEK-293T; 24 h, replicate number 2): 0.41 and 0.4; Growth Rate (U2OS; 0 h, replicate number 2): -0.9
7 | COc1ccc(CC(=O)NC(N/C(=N/C#N)Nc2cccc3ncccc23)C(C)(C)C)cc1OC (stereo not given) | 0.89 | – | -0.31 | -1 | 0.57 | 0.6 | 0.81 | 0.59 | 0.08 | 0.31 | 0.96 | 0.85 | 0.98 | 0.78 | – | – | 0.85 | – | – | -1 | Growth Rate (HEK-293T; 18 h, replicate number 2): 0.99; Growth Rate (U2OS; 24 h, replicate number 2): 0.82
8 | CC(C)n1nc(-c2cnc(N)c(OC(F)(F)F)c2)cc1[C@H]1[C@@H]2CN(C3COC3)C[C@@H]21 | 0.62 | – | – | – | 0.78 | 0.08 | 0.91 | 0.95 | 0.76 | – | 0.92 | – | – | – | 0.84 | – | 0.6 | 0.52 | – | -0.97 | –
9 | O=C(Nc1cc(C(F)(F)F)ccc1N1CCCCC1)c1ccncc1 | 0.49 | – | – | 0.12 | 0.6 | – | 0.93 | 0.9 | – | 0.58 | – | – | – | – | – | – | 0.2 | – | – | – | Growth Rate (Fibroblast; 0 h, replicate number 2): -0.43
10 | C[C@@H](c1ccc(F)cc1)n1nnc2cnc3ccc(-c4ccc5ocnc5c4)cc3c21 | 0.07 | 0.99 | -0.77 | 0.8 | – | 0.35 | – | – | – | – | – | – | 0.87 | – | 0.82 | – | -0.74 | 0.85 | 1 | -0.93 | Growth Rate (Fibroblast; 0 h, replicate number 2): -0.11; Growth Rate (U2OS; 0 h, replicate number 2): 0.17
11 | COc1ccc(CSc2nnc(-c3ccc4ncsc4c3)o2)cc1C(F)(F)F | 0.47 | 0.75 | 0.92 | 0.49 | 0.64 | 0.68 | 0.71 | 0.84 | -0.59 | 0.78 | – | 0.87 | – | -0.67 | – | 0.95 | -0.97 | -1 | 0.64 | 0.88 | Growth Rate (HEK-293T; 18 h, replicate number 2): 0.76; Growth Rate (HEK-293T; 24 h, replicate number 2): 0.76; Growth Rate (U2OS; 0 h, replicate number 2): 0.81; Growth Rate (U2OS; 24 h, replicate number 2): 0.95
12 | O=C1CCCc2[nH]c(-c3ccnc(NCC4CC4)c3)c(Nc3ccccc3)c21 | 0.41 | 0.66 | -0.03 | – | 0.57 | 0.49 | 0.89 | 0.88 | 0.51 | – | 0.68 | – | 0.72 | – | 0.59 | 0.88 | 0.75 | -1 | 0.45 | 0.34 | Growth Rate (HEK-293T; 18 h, replicate number 1): 0.94; Growth Rate (HEK-293T; 18 h, replicate number 2): 0.62; Growth Rate (HEK-293T; 24 h, replicate number 2): 0.7; Growth Rate (U2OS; 24 h, replicate number 2): 1
13 | CCCN1C(=O)c2ccc(Cl)cc2Nc2ncccc21 | – | 0.86 | 0.56 | -0.63 | 0.55 | 0.68 | 0.62 | – | 0.65 | – | – | 0.68 | – | 0.91 | 0.98 | – | 0.38 | -1 | 0.63 | 0.9 | –
14 | CP(C)(=O)c1ccc(CNC(=O)C2CCN(S(=O)(=O)c3cc(Cl)cc(Cl)c3)CC2)cc1 | – | – | – | – | – | – | – | – | 0.37 | – | 0.74 | 0.85 | 0.74 | 0.9 | 0.87 | 0.89 | 0.11 | – | – | – | Growth Rate (HEK-293T; 12 h, replicate number 1): 0.93; Growth Rate (HEK-293T; 18 h, replicate number 1): 0.9; Growth Rate (Fibroblast; 0 h, replicate number 2): -0.94; Growth Rate (U2OS; 24 h, replicate number 2): 0.89
15 | Cc1ccc(-c2cn3nc(C(=O)NC4(c5ccc(F)cc5)CN(C)C4)c(C(C)C)c3c(=O)[nH]2)cc1C | – | – | – | 0.39 | 0.19 | 0.16 | 0.26 | 0.27 | 0.98 | – | 0.9 | 0.86 | 0.59 | 0.74 | 0.31 | 0.07 | – | -1 | 0.16 | 0.22 | Growth Rate (HEK-293T; 12 h, replicate number 1): 0.66; Growth Rate (HEK-293T; 18 h, replicate number 1): 0.19; Growth Rate (HEK-293T; 18 h, replicate number 2): 0.21; Growth Rate (HEK-293T; 24 h, replicate number 2): 0.09; Growth Rate (U2OS; 24 h, replicate number 2): 0.61
16 | COc1ccccc1[C@@H]1CNCCC12CCN(C(=O)[C@](OC)(c1ccccc1)C(F)(F)F)CC2 | – | – | 0.9 | – | 0.7 | 0.54 | 0.97 | 0.68 | 0.37 | – | 0.85 | – | 0.73 | 0.99 | 0.53 | 0.22 | -0.8 | -1 | 0.63 | 0.93 | Growth Rate (HEK-293T; 12 h, replicate number 1): 0.43; Growth Rate (HEK-293T; 18 h, replicate number 1): 0.28; Growth Rate (HEK-293T; 18 h, replicate number 2): 0.64; Growth Rate (HEK-293T; 24 h, replicate number 2): 0.34; Growth Rate (U2OS; 0 h, replicate number 2): 0.59; Growth Rate (U2OS; 24 h, replicate number 2): 0.82
17 | CC1CCN(C(=O)[C@@H](CCn2cccc2C#N)NS(=O)(=O)c2cccc3[nH]ccc23)CC1 | 0.99 | – | – | – | – | – | 0.96 | – | 0.55 | 0.85 | – | 0.81 | – | – | 0.86 | – | 0.26 | – | – | – | Growth Rate (Fibroblast; 0 h, replicate number 2): -0.84
18 | CC1CNCCc2c1nc1ccnn1c2N1CC(C(=O)N2CCC(C)(C)C2)C1 (stereo not given) | 0.99 | – | 0.73 | -0.38 | 0.76 | 0.7 | 0.74 | 0.97 | 0.99 | – | 0.75 | – | 0.86 | – | 0.98 | – | 0.03 | -1 | 0.84 | 0.56 | –
